Where a SMILES comes first, the peptide text is derived from it. [ ]: non-standard residue; d: D form. The star is where a group is joined. NH(CH2)3NH(1-anthraquinonyl) = O=C1c2ccccc2C(=O)c2c(NCCCN*)cccc21; Nle = CCCC[C@H](N)C(=O)O; Nva = CCC[C@H](N)C(=O)O; Mob = COc1ccc(C*)cc1

Take `CC(C)C[C@H](NC(=O)[C@H](C)N)C(=O)NCC(=O)N[C@@H](CC(C)C)C(=O)N1CCC[C@@H]1C(=O)NCCCNc1cccc2c1C(=O)c1ccccc1C2=O.O=C(O)C(F)(F)F`: the melting point (usually the temperature of the solid-liquid transition) was determined as 168 °C.
With `NCCCNc1cccc2c1C(=O)c1ccccc1C2=O` the figure was 196 °C; with `CCCC[C@H](NC(=O)[C@H](C)NC(=O)[C@H](C)NC(=O)[C@@H](C)N)C(=O)NCC(=O)N[C@@H](CC(C)C)C(=O)N1CCC[C@H]1C(=O)NCCCNc1cccc2c1C(=O)c1ccccc1C2=O.O=C(O)C(F)(F)F`, 192 °C.
The compound `CSC[C@H](NC(=O)[C@H](C)NC(=O)[C@H](C)NC(=O)[C@@H](C)N)C(=O)NCC(=O)N[C@@H](CC(C)C)C(=O)N1CCC[C@H]1C(=O)NCCCNc1cccc2c1C(=O)c1ccccc1C2=O.O=C(O)C(F)(F)F` gave a melting point of 191 °C.
In the case of `CC(C)C[C@H](NC(=O)[C@H](Cc1ccc(O)cc1)NC(=O)[C@H](C)NC(=O)[C@@H](C)N)C(=O)NCC(=O)N[C@@H](CC(C)C)C(=O)N1CCC[C@H]1C(=O)NCCCNc1cccc2c1C(=O)c1ccccc1C2=O.O=C(O)C(F)(F)F`, the melting point was 190 to 194 °C.
Take `CCC[C@H](NC(=O)[C@H](C)NC(=O)[C@@H](C)N)C(=O)N[C@@H](CC(C)C)C(=O)NCC(=O)N[C@@H](CC(C)C)C(=O)N1CCC[C@H]1C(=O)NCCCNc1cccc2c1C(=O)c1ccccc1C2=O.O=C(O)C(F)(F)F`: the melting point is 174 to 178 °C.
For `CC(C)C[C@H](NC(=O)[C@H](C)NC(=O)[C@H](C)NC(=O)[C@H](N)CCCCN)C(=O)NCC(=O)N[C@@H](CC(C)C)C(=O)N1CCC[C@H]1C(=O)NCCCNc1cccc2c1C(=O)c1ccccc1C2=O.O=C(O)C(F)(F)F.O=C(O)C(F)(F)F`, the melting point amounted to 196 °C.
With `CCC[C@H](NC(=O)[C@H](Cc1ccc(O)cc1)NC(=O)[C@H](C)NC(=O)[C@@H](C)N)C(=O)NCC(=O)N[C@@H](CC(C)C)C(=O)N1CCC[C@H]1C(=O)NCCCNc1cccc2c1C(=O)c1ccccc1C2=O.O=C(O)C(F)(F)F`, the melting point worked out at 190 °C.
For the compound `CSC[C@H](NC(=O)[C@H](Cc1ccc(O)cc1)NC(=O)[C@H](C)NC(=O)[C@@H](C)N)C(=O)NCC(=O)N[C@@H](CC(C)C)C(=O)N1CCC[C@H]1C(=O)NCCCNc1cccc2c1C(=O)c1ccccc1C2=O.O=C(O)C(F)(F)F`, the melting point is 195 °C.
The compound `CCC[C@H](N)C(=O)N1CCC[C@H]1C(=O)NCCCNc1cccc2c1C(=O)c1ccccc1C2=O.O=C(O)C(F)(F)F` yielded a melting point of 190 to 194 °C.
For `CCC[C@H](NC(=O)CN)C(=O)N1CCC[C@H]1C(=O)NCCCNc1cccc2c1C(=O)c1ccccc1C2=O.O=C(O)C(F)(F)F`, the melting point is 196 °C.
Regarding `CCC[C@H](NC(=O)CNC(=O)[C@H](CC(C)C)NC(=O)[C@H](C)NC(=O)[C@H](C)NC(=O)[C@@H](C)N)C(=O)N1CCC[C@H]1C(=O)NCCCNc1cccc2c1C(=O)c1ccccc1C2=O.O=C(O)C(F)(F)F`, the melting point lay within 192 to 196 °C.
As to `CC(C)C[C@H](NC(=O)[C@H](C)N)C(=O)N1CCC[C@H]1C(=O)NCCCNc1cccc2c1C(=O)c1ccccc1C2=O.O=C(O)C(F)(F)F`, the melting point was 170 to 174 °C.
`CC(C)C[C@H](NC(=O)CNC(=O)[C@H](C)NC(=O)[C@@H](C)N)C(=O)N[C@@H](C)C(=O)N[C@@H](CC(C)C)C(=O)N1CCC[C@H]1C(=O)NCCCNc1cccc2c1C(=O)c1ccccc1C2=O.O=C(O)C(F)(F)F`: the melting point is 192 °C.
The compound `CC(C)C[C@H](NC(=O)[C@@H](N)Cc1ccccc1)C(=O)N1CCC[C@H]1C(=O)NCCCNc1cccc2c1C(=O)c1ccccc1C2=O.O=C(O)C(F)(F)F` registered a melting point of 184 to 188 °C.
On to `CC(C)C[C@H](NC(=O)CNC(=O)[C@H](C)NC(=O)[C@@H](C)N)C(=O)N[C@@H](Cc1ccccc1)C(=O)N[C@@H](CC(C)C)C(=O)N1CCC[C@H]1C(=O)NCCCNc1cccc2c1C(=O)c1ccccc1C2=O.O=C(O)C(F)(F)F`, for which the melting point lay in the range of 190 to 194 °C.
As for `NCC(=O)N1CCC[C@H]1C(=O)NCCCNc1cccc2c1C(=O)c1ccccc1C2=O.O=C(O)C(F)(F)F`, the melting point was 160 to 166 °C.
Take `CC(C)C[C@H](N)C(=O)NCC(=O)N1CCC[C@H]1C(=O)NCCCNc1cccc2c1C(=O)c1ccccc1C2=O.O=C(O)C(F)(F)F`: the melting point was 172 to 174 °C.
Consider `CC(C)C[C@H](NC(=O)[C@@H](N)Cc1ccccc1)C(=O)NCC(=O)N1CCC[C@H]1C(=O)NCCCNc1cccc2c1C(=O)c1ccccc1C2=O.O=C(O)C(F)(F)F`, for which the melting point lay within 164 to 168 °C.
With `CC(C)C[C@H](NC(=O)[C@H](Cc1ccccc1)NC(=O)CN)C(=O)NCC(=O)N1CCC[C@H]1C(=O)NCCCNc1cccc2c1C(=O)c1ccccc1C2=O.O=C(O)C(F)(F)F` the figure was 157 °C; with `NCC(=O)N1CCC[C@@H]1C(=O)NCCCNc1cccc2c1C(=O)c1ccccc1C2=O.O=C(O)C(F)(F)F`, 156 to 162 °C; with `CC(C)C[C@H](N)C(=O)NCC(=O)N1CCC[C@@H]1C(=O)NCCCNc1cccc2c1C(=O)c1ccccc1C2=O.O=C(O)C(F)(F)F`, 174 to 178 °C.
Regarding `CC(C)C[C@H](NC(=O)[C@@H](N)Cc1ccccc1)C(=O)NCC(=O)N1CCC[C@@H]1C(=O)NCCCNc1cccc2c1C(=O)c1ccccc1C2=O.O=C(O)C(F)(F)F`, the melting point was 170 °C.
The compound `CC(C)C[C@H](NC(=O)[C@H](Cc1ccccc1)NC(=O)CN)C(=O)NCC(=O)N1CCC[C@@H]1C(=O)NCCCNc1cccc2c1C(=O)c1ccccc1C2=O.O=C(O)C(F)(F)F` had a melting point of 154 to 156 °C.
Take `N[C@@H](Cc1ccccc1)C(=O)N1CCC[C@@H]1C(=O)NCCCNc1cccc2c1C(=O)c1ccccc1C2=O.O=C(O)C(F)(F)F`: the melting point fell in the range of 118 to 120 °C.
In turn, `NCC(=O)N[C@@H](Cc1ccccc1)C(=O)N1CCC[C@@H]1C(=O)NCCCNc1cccc2c1C(=O)c1ccccc1C2=O.O=C(O)C(F)(F)F` had a melting point of 128 to 130 °C.
In the case of `CC[C@H](C)[C@H](N)C(=O)NCC(=O)N[C@@H](Cc1ccccc1)C(=O)N1CCC[C@@H]1C(=O)NCCCNc1cccc2c1C(=O)c1ccccc1C2=O.O=C(O)C(F)(F)F` it was 120 to 126 °C; in that of `CC[C@H](C)[C@H](NC(=O)[C@@H](N)Cc1ccccc1)C(=O)NCC(=O)N[C@@H](Cc1ccccc1)C(=O)N1CCC[C@@H]1C(=O)NCCCNc1cccc2c1C(=O)c1ccccc1C2=O.O=C(O)C(F)(F)F`, 130 to 134 °C; in that of `CC[C@H](C)[C@H](NC(=O)[C@H](Cc1ccccc1)NC(=O)[C@@H](N)CC(C)C)C(=O)NCC(=O)N[C@@H](Cc1ccccc1)C(=O)N1CCC[C@@H]1C(=O)NCCCNc1cccc2c1C(=O)c1ccccc1C2=O.O=C(O)C(F)(F)F`, 168 to 170 °C.
Take `CC[C@H](C)[C@H](NC(=O)[C@H](Cc1ccccc1)NC(=O)[C@H](CC(C)C)NC(=O)[C@@H](C)N)C(=O)NCC(=O)N[C@@H](Cc1ccccc1)C(=O)N1CCC[C@@H]1C(=O)NCCCNc1cccc2c1C(=O)c1ccccc1C2=O.O=C(O)C(F)(F)F`: the melting point is 144 to 146 °C.
As to `CSC[C@H](NC(=O)[C@H](C)NC(=O)[C@H](C)N)C(=O)NCC(=O)N[C@@H](CC(C)C)C(=O)N1CCC[C@H]1C(=O)NCCCNc1cccc2c1C(=O)c1ccccc1C2=O.O=C(O)C(F)(F)F` (H-AAC(Me)GLP-{NH(CH2)3NH(1-anthraquinonyl)}), the melting point was 162 °C.
Regarding `COc1ccc(CSC[C@H](NC(=O)[C@H](C)NC(=O)[C@H](C)N)C(=O)NCC(=O)N[C@@H](CC(C)C)C(=O)N2CCC[C@H]2C(=O)NCCCNc2cccc3c2C(=O)c2ccccc2C3=O)cc1.O=C(O)C(F)(F)F` (H-AAC(Mob)GLP-{NH(CH2)3NH(1-anthraquinonyl)}), the melting point was 182 °C.
For `CCC[C@H](NC(=O)CNC(=O)[C@H](CC(C)C)NC(=O)[C@H](C)NC(=O)[C@H](C)N)C(=O)N1CCC[C@H]1C(=O)NCCCNc1cccc2c1C(=O)c1ccccc1C2=O.O=C(O)C(F)(F)F` (H-AALG[Nva]P-{NH(CH2)3NH(1-anthraquinonyl)}), the melting point was determined as 188 °C.
With `CCCC[C@H](NC(=O)[C@H](C)NC(=O)[C@H](C)N)C(=O)NCC(=O)N[C@@H](CC(C)C)C(=O)N1CCC[C@H]1C(=O)NCCCNc1cccc2c1C(=O)c1ccccc1C2=O.O=C(O)C(F)(F)F` (H-AA[Nle]GLP-{NH(CH2)3NH(1-anthraquinonyl)}) the figure was 176 °C; with `CCC[C@H](NC(=O)[C@H](C)NC(=O)[C@H](C)N)C(=O)NCC(=O)N[C@@H](CC(C)C)C(=O)N1CCC[C@H]1C(=O)NCCCNc1cccc2c1C(=O)c1ccccc1C2=O.O=C(O)C(F)(F)F` (H-AA[Nva]GLP-{NH(CH2)3NH(1-anthraquinonyl)}), 197 °C.
With `CC(C)C[C@H](NC(=O)CNC(=O)[C@H](C)N)C(=O)N[C@@H](C)C(=O)N[C@@H](CC(C)C)C(=O)N1CCC[C@H]1C(=O)NCCCNc1cccc2c1C(=O)c1ccccc1C2=O.O=C(O)C(F)(F)F` (H-AGLALP-{NH(CH2)3NH(1-anthraquinonyl)}), the melting point was 185 °C.
Turning to `CC(C)C[C@H](NC(=O)CNC(=O)[C@H](C)N)C(=O)N[C@@H](Cc1ccccc1)C(=O)N[C@@H](CC(C)C)C(=O)N1CCC[C@H]1C(=O)NCCCNc1cccc2c1C(=O)c1ccccc1C2=O.O=C(O)C(F)(F)F` (H-AGLFLP-{NH(CH2)3NH(1-anthraquinonyl)}), the melting point stood at 186 °C.
For the compound `CCC[C@H](NC(=O)CNC(=O)[C@H](CC(C)C)NC(=O)[C@H](C)N)C(=O)N1CCC[C@H]1C(=O)NCCCNc1cccc2c1C(=O)c1ccccc1C2=O.O=C(O)C(F)(F)F` (H-ALG[Nva]P-{NH(CH2)3NH(1-anthraquinonyl)}), the melting point is 176 to 178 °C.
Turning to `CSC[C@H](NC(=O)[C@H](Cc1ccc(O)cc1)NC(=O)[C@H](C)N)C(=O)NCC(=O)N[C@@H](CC(C)C)C(=O)N1CCC[C@H]1C(=O)NCCCNc1cccc2c1C(=O)c1ccccc1C2=O.O=C(O)C(F)(F)F` (H-AYC(Me)GLP-{NH(CH2)3NH(1-anthraquinonyl)}), the melting point fell in the range of 166 to 170 °C.
In the case of `CC(C)C[C@H](NC(=O)[C@H](Cc1ccc(O)cc1)NC(=O)[C@H](C)N)C(=O)NCC(=O)N[C@@H](CC(C)C)C(=O)N1CCC[C@H]1C(=O)NCCCNc1cccc2c1C(=O)c1ccccc1C2=O.O=C(O)C(F)(F)F` (H-AYLGLP-{NH(CH2)3NH(1-anthraquinonyl)}) it was 182 °C.

These data come from patent US20040248765A1, “Tumour targeting prodrugs activated by metallo matrixproteinases” (priority 2001, published 2004).
